Experimental findings from patent publication US10927117B2 (BEIGENE SWITZERLAND GMBH, priority 2016, dated 2021) are described below.

Data set [1] relates to Chronic Lymphocytic Leukemia and Small Lymphocytic Lymphoma (CLL/SLL). The data set can be described thus: Phase 1 trial in patients with CLL/SLL. The class given is in vivo, human. As to the method: The dose-escalation component of the trail tested total daily doses between 40 mg and 320 mg, and the ongoing dose-expansion component is testing doses of 160 mg twice a day (BID) or 320 mg once a day (QD). As of Mar. 31, 2017, 69 patients with CLL or SLL (18 TN, […]) were enrolled in the study.

Data set [2] in a line: Pharmacokinetics study in mouse. The format is in vivo. To be noted: ICR mice, oral gavage. As to the method:
For time course study, mice were randomly assigned into 7 groups with 4 mice per group. […] For dose dependency study, mice were randomly assigned into 9 groups with 4 mice per group. […] Treatments were administered by oral gavage (p.o.) in a volume of 10 ml/kg body weight. Body weight was assessed immediately before dosing and volume dosed was adjusted accordingly.
PK SAMPLE PREPARATION: For time course study, blood samples (50 μL per mouse) were collected from the retro-orbital sinus under isoflurane/oxygen anesthesia at 15 min after dosing (this group of mice were also used for 24 hr time point) or heart puncture after euthanization for the other time points. For dose dependency study, blood samples were collected from the retro-orbital sinus under isoflurane/oxygen anesthesia at 30 minutes after dosing. Plasma was collected by centrifugation at 3,000 g for 10 minutes and was kept frozen in −80° C. until analysis.
PK Analysis: maximum plasma concentration (Cmax) and time to reach Cmax (Tmax) were taken directly from the plasma concentration versus time profiles.

Data set [3] can be described thus: Hygroscopic test (DVS). The class given is physicochemical. To be noted: 80% RH, 25° C. As to the method: The dynamic vapor sorption (DVS) plots shown as in FIG. 6 was collected a SMS (Surface Measurement Systems) DVS Intrinsic. The DVS parameters used includes: temperature (25° C.); dm/dt (0.002%/min); Min. dm/dt stability duration (10 min); Max. equilibrium time (180 min); RH range (0% RH to 95% RH); RH step size(10% RH from 0% RH to 90% RH, 5% RH from 90% RH to 95% RH).

Data set [4] has as its target T1, TEC (Homo sapiens, UniProt P42680).
T1 sequence (P42680 1-631): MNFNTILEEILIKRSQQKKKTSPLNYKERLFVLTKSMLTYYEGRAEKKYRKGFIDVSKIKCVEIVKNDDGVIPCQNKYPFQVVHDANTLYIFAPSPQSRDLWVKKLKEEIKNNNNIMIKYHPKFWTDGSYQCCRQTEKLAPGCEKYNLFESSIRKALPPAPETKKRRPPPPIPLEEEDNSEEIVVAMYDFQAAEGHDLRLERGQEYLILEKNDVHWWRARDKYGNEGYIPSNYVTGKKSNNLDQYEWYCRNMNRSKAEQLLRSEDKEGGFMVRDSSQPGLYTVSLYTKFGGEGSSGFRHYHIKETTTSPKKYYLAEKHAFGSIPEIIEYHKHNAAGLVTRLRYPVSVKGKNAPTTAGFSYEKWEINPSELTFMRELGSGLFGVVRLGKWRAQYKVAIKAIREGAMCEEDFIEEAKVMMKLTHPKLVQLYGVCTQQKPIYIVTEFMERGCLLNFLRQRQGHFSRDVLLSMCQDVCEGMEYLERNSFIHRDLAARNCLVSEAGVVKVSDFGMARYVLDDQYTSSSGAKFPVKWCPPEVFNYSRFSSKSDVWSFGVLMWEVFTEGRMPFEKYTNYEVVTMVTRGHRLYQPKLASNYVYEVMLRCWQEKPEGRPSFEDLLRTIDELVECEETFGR
The experiment in a line: IC50 determination of TEC (TR-FRET). The class given is biochemical. The settings on record: at KM of ATP, 1-hour pre-incubation. Background: In TR-FRET formats the signal depends on donor and acceptor labels being close together.

Data set [5] has as its system TMD8 cells (ABC type diffuse large B-cell lymphoma cell line). The experiment in a line: Tumor cell proliferation, CellTiter-Glo, TMD-8. The format is cell-based. The settings on record: Homo sapiens, TMD8, 144 h; TMD-8 cell line, DLBCL(ABC); 6-day exposure; mean of 3 independent assays; read-out: Potency IC50. As to the method:
3 MCL cell lines (Rec-1, Mino and JEKO-1) and an ABC type diffuse large B-cell lymphoma cell line (TMD8) were used in this study. Cell lines were maintained in RPMI-1640 supplemented with 10% fetal bovine serum/FBS (Thermo Scientific); 100 units/ml penicillin (Gibco) and 0.1 mg/ml streptomycin (Gibco) and kept at 37° C. in a humidified atmosphere of 5% CO2 in air. Cell lines were reinstated from frozen stocks that were laid down within 30 passages from the original cells purchased.
The growth-inhibitory activity of compounds in Rec-1, Mino, JEKO-1 and TMD-8 cells was determined using CellTiter-Glo luminescent cell viability assay (Promega). The number of cells seeded per well of a 96-well plate was optimized for each cell line to ensure logarithmic growth over 6 days treatment period. Cells were treated in triplicate with a 10-point dilution series. […] Mixture was mixed on an orbital shaker for 2 minutes to allow cell lysis, followed by 10 minutes incubation at room temperature to allow development and stabilization of luminescent signal, which corresponded to quantity of ATP and thus the quantity of metabolically active cells. Luminescent signal was measured using PHERAstar FS reader (BMG Labtech). IC50 values for cell viability were determined with GraphPad Prism software and were the mean of 3 independent assays.
(In general: In ATP-based viability assays light output follows the ATP content of the culture.)

[6] abbreviates: CLL/SLL, adverse event of interest.

Molecules are shown by their SMILES.

In data set [1] (CLL/SLL), `C=CC(=O)N1CCC([C@@H]2CCNc3c(C(N)=O)c(-c4ccc(Oc5ccccc5)cc4)nn32)CC1` [Compound 1, (S)-7-(1-acryloylpiperidin-4-yl)-2-(4-phenoxyphenyl)-4,5,6,7-tetra-hydropyrazolo[1,5-a]pyrimidine-3-carboxamide] came in with an AE arthralgia of 12%, an AE cough of 23%, an AE diarrhea of 22% and an AE fatigue of 29%. In data set [1] (CLL/SLL), this compound gave an AE headache of 19%, an AE hematuria of 15%, an AE muscle spasms of 12% and an AE nausea of 13%. Also, in data set [1] (CLL/SLL), the AE rash is listed as 13%, the “AE upper respiratory tract infection” value stood at 28%, the “AE urinary tract infection” value was 12% and the “number of serious AEs (SAEs)” value is listed as 18. The “patients with serious AEs” value in data set [1] (CLL/SLL) is on record as 13. Also, the “overall response rate (ORR)” value in data set [1] (CLL/SLL, 66 evaluable patients, median follow-up 10.5 months) is 94%. In addition, in data set [1] (CLL/SLL, 66 patients), the “PRs with lymphocytosis (PR-Ls)” value is listed as 9%, the “complete responses (CRs)” value worked out at 3% and the “partial responses (PRs)” value stood at 82%. In addition, in data set [1] (setting [6]), the “grade 2 atrial fibrillation” value is given as “one case” and the “grade 2 diarrhea” value was “one case”. This compound also registered an AE petechiae/purpura/contusion in data set [1] (CLL/SLL, any attribution) of 46%. In data set [1] (CLL/SLL, grade 2 pleural effusion), the “patients who discontinued treatment due to an AE” value is “one patient”. In data set [1] (CLL/SLL, median follow-up 10.5 months), this compound came in with a treatment discontinuation rate of 3%. The major bleeding event result in data set [1] (CLL/SLL, subcutaneous hemorrhage) was “one case of grade 3 purpura”. In data set [1] (R/R CLL/SLL, 50 patients), this compound displayed a CRs of 2%, a PR-Ls of 8%, a PRs of 82% and a stable disease of 6%. Also, the ORR in data set [1] (R/R CLL/SLL, 50 patients, median follow-up 14.0 months) is 92%. In addition, in data set [1] (TN CLL/SLL, 16 patients), the CRs stood at 6%, the PR-Ls came out at 13% and the PRs came out at 81%. The ORR in data set [1] (TN CLL/SLL, 16 patients, median follow-up 7.6 months) is reported as 100%.
Turning to `C=CC(=O)N1CCC([C@@H]2CCNc3c(C(N)=O)c(-c4ccc(Oc5ccccc5)cc4)nn32)CC1` [Crystalline Form A, (S)-7-(1-acryloylpiperidin-4-yl)-2-(4-phenoxyphenyl)-4,5,6,7-tetra-hydropyrazolo[1,5-a]pyrimidine-3-carboxamide], the absorption and elimination entry in data set [2] was “quickly absorbed and eliminated”. In data set [3], the “increase of mass (DVS)” value is “about 0.8%”. Moreover, the IC50 in data set [4] turned out to be 1.9 nM; in data set [5], 0.54 nM.

As a reminder, the IC50 is the point on the concentration scale where inhibition reaches its midpoint.
